ChEMBL document CHEMBL1201862, “PubChem BioAssay data set” (2004)
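Interpolation was linear, between the two tested concentrations surrounding the appropriate level; five concentrations were tested over 48 hours in 96-well plates. At the GI50, growth is halved.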 The source made the active and inactive calls. Cut-off read from the data, not from the text of the source: active = GI50 up to about 1.1 µM and inactive = higher. Peptide text beside a SMILES is read from it.

Assays:
Test in all cases: DTP human tumour cell line panel, 48 h
IGROV-1 = system: IGROV-1
NCI-H460 = system: NCI-H460
MOLT-4 = system: MOLT-4
RXF 393 = system: RXF 393
MDA-MB-231 = system: MDA-MB-231
SR = system: SR
OVCAR-8 = system: OVCAR-8
HT-29 = system: HT-29
HOP-62 = system: HOP-62
SK-OV-3 = system: SK-OV-3
M14 = system: M14
HCC 2998 = system: HCC 2998
K562 = system: K562
NCI-H226 = system: NCI-H226
NCI-H23 = system: NCI-H23
DU-145 = system: DU-145
NCI/ADR-RES = system: NCI/ADR-RES
Malme-3M = system: Malme-3M
KM12 = system: KM12
A498 = system: A498

Measured: GI50

c1ccc2c(c1)cc1c3[nH]c4ccccc4c3ccn21
inactive: IGROV-1 > 10 µM | NCI-H460 > 10 µM | MOLT-4 > 10 µM | RXF 393 > 10 µM | MDA-MB-231 > 10 µM | SR > 10 µM | OVCAR-8 > 10 µM | HT-29 > 10 µM | HOP-62 > 10 µM | SK-OV-3 > 10 µM | M14 > 10 µM | HCC 2998 > 10 µM | K562 > 10 µM | NCI-H226 > 10 µM | NCI-H23 > 10 µM | DU-145 > 10 µM | NCI/ADR-RES > 10 µM | Malme-3M 1.65 µM | KM12 > 10 µM

CC(=O)NC(CS)C(=O)NC(CO)C(=O)NC(CO)C(=O)NC(Cc1c[nH]c2ccccc12)C(=O)N1CCCC1C(=O)NC(CO)C(=O)NC(Cc1c[nH]c2ccccc12)C(=O)NC(Cc1c[nH]cn1)C(=O)NC(CO)C(=O)NC(Cc1c[nH]c2ccccc12)C(=O)NCC(=O)NCC(=O)NC(C)C(=O)NC(CCC(N)=O)C(=O)NC(CCCCN)C(=O)NC(C)C(=O)NC(CCCNC(=N)N)C(=O)NC(CCCCN)C(N)=O (centres undefined) (Ac-CSSWPSWHSWGGAQKARK-NH2; configuration not given here)
inactive: IGROV-1 > 50 µM | NCI-H460 12.4 µM | MOLT-4 29.8 µM | RXF 393 10 µM | MDA-MB-231 8.49 µM | SR 11.8 µM | OVCAR-8 42.6 µM | HT-29 > 50 µM | HOP-62 > 50 µM | SK-OV-3 > 50 µM | M14 23.2 µM | K562 10.3 µM | NCI-H226 > 50 µM | NCI-H23 14.8 µM | DU-145 16.8 µM | NCI/ADR-RES > 50 µM | A498 > 50 µM | Malme-3M 10.8 µM | KM12 11.6 µM

CCCCCN1C(=O)C(Cc2ccccc2)N=C(c2ccc(O)cc2)c2cc(Cl)ccc21 (centres undefined)
inactive: IGROV-1 6.73 µM | NCI-H460 7.73 µM | MOLT-4 4.09 µM | MDA-MB-231 17.3 µM | SR 2.97 µM | OVCAR-8 8.87 µM | HT-29 9.06 µM | HOP-62 23.7 µM | SK-OV-3 18.6 µM | M14 11.2 µM | K562 3.23 µM | NCI-H226 7.43 µM | NCI-H23 4.98 µM | DU-145 15.8 µM | NCI/ADR-RES 8.11 µM | A498 > 33.7 µM | Malme-3M 7.57 µM | KM12 10.1 µM

O=C(CSCC(=O)N/N=C/c1ccc2c(c1)OCO2)N/N=C/c1ccc2c(c1)OCO2
inactive: IGROV-1 > 100 µM | NCI-H460 > 100 µM | MOLT-4 21.5 µM | RXF 393 > 100 µM | MDA-MB-231 > 100 µM | OVCAR-8 49 µM | HT-29 > 100 µM | HOP-62 > 100 µM | SK-OV-3 > 100 µM | M14 58.9 µM | HCC 2998 > 100 µM | K562 38.3 µM | NCI-H226 40.2 µM | NCI-H23 27 µM | DU-145 > 100 µM | NCI/ADR-RES > 100 µM | A498 > 100 µM | Malme-3M 49.2 µM | KM12 > 100 µM

C=C(C)[C@@H]1CC[C@@]2(C)[C@H]1[C@H]1CCC3[C@@]4(C)CC[C@H](O)C(C)(C)[C@@H]4CC[C@@]3(C)[C@]1(C)C[C@@H]2O (some centres undefined) [CALENDULADIOL]
inactive: IGROV-1 60.3 µM | NCI-H460 23 µM | MOLT-4 11.2 µM | RXF 393 25.9 µM | MDA-MB-231 46.6 µM | SR 28.4 µM | OVCAR-8 41.3 µM | HT-29 24.4 µM | HOP-62 > 100 µM | M14 > 100 µM | K562 6.61 µM | NCI-H226 > 100 µM | NCI-H23 > 100 µM | DU-145 74.8 µM | NCI/ADR-RES 56.9 µM | A498 > 100 µM | Malme-3M 33 µM | KM12 39.4 µM

O=S(=O)(O)C(Cc1nc2ccccc2[nH]1)S(=O)(=O)OCCC1S(=O)(=O)OCCOS1(=O)=O (centres undefined)
inactive: IGROV-1 > 100 µM | NCI-H460 > 100 µM | MOLT-4 > 100 µM | RXF 393 > 100 µM | MDA-MB-231 > 100 µM | OVCAR-8 > 100 µM | HT-29 > 100 µM | HOP-62 > 100 µM | SK-OV-3 > 100 µM | M14 > 100 µM | HCC 2998 > 100 µM | K562 > 100 µM | NCI-H226 > 100 µM | NCI-H23 > 100 µM | DU-145 > 100 µM | NCI/ADR-RES > 100 µM | A498 > 100 µM | Malme-3M > 100 µM | KM12 > 100 µM

COc1ccc(Nc2nn3c(=O)c4c(C)c(C)sc4nc3s2)cc1
inactive: IGROV-1 42.2 µM | NCI-H460 28.6 µM | MOLT-4 43.2 µM | RXF 393 19.7 µM | MDA-MB-231 78.7 µM | SR 9.84 µM | OVCAR-8 49.1 µM | HT-29 42.3 µM | HOP-62 29.1 µM | SK-OV-3 26.6 µM | M14 61.1 µM | K562 > 100 µM | NCI-H226 67.8 µM | NCI-H23 18.7 µM | DU-145 18.1 µM | NCI/ADR-RES 39.1 µM | Malme-3M 32.2 µM | KM12 44.8 µM

COc1cccc(/C=C2\CCCc3ccccc3C2=O)c1
inactive: IGROV-1 17.9 µM | NCI-H460 14.5 µM | MOLT-4 19.4 µM | MDA-MB-231 13.8 µM | SR 13 µM | OVCAR-8 19.2 µM | HT-29 17.1 µM | HOP-62 16.1 µM | SK-OV-3 30.5 µM | M14 13 µM | K562 16.1 µM | NCI-H226 18.8 µM | NCI-H23 15.1 µM | DU-145 19.1 µM | NCI/ADR-RES 17.9 µM | Malme-3M 19.6 µM | KM12 17.6 µM

NN/C(=N\S(=O)(=O)c1cc2ccccc2s1)Nc1ccc(Cl)cc1
inactive: IGROV-1 17.3 µM | NCI-H460 18.5 µM | MOLT-4 18.9 µM | RXF 393 15.5 µM | MDA-MB-231 20.1 µM | SR 40.1 µM | OVCAR-8 22.4 µM | HT-29 19.9 µM | HOP-62 18.8 µM | SK-OV-3 34.9 µM | M14 20.9 µM | K562 13.3 µM | NCI-H226 19.3 µM | NCI-H23 20.3 µM | DU-145 17.8 µM | NCI/ADR-RES 20 µM | A498 19.9 µM | KM12 19.1 µM

C/C(=N/NC(N)=S)c1ccc[nH]1
inactive: IGROV-1 > 100 µM | NCI-H460 > 100 µM | MOLT-4 > 100 µM | RXF 393 > 100 µM | MDA-MB-231 > 100 µM | OVCAR-8 > 100 µM | HT-29 > 100 µM | HOP-62 > 100 µM | SK-OV-3 > 100 µM | M14 > 100 µM | HCC 2998 > 100 µM | K562 37.9 µM | NCI-H226 > 100 µM | NCI-H23 > 100 µM | DU-145 > 100 µM | NCI/ADR-RES > 100 µM | A498 > 100 µM | Malme-3M > 100 µM | KM12 > 100 µM
